How the values were obtained:
Type in all cases: cell-based
NF-κB = experiment: Measurement of NF-κB activation using THP1-Blue NF-κB cells (SEAP reporter, LPS as primary stimulus); conditions: compound 5 μM + LPS, 20 hour incubation; two point normalized: compound 1 + LPS = 200%, LPS = 100%; mean
Method: THP1-Blue™ NF-κB cells were plated in 96-well plates at 10^5 cells/well in 100 μl RPMI supplemented with 10% fetal bovine serum (FBS, Omega Scientific, Inc., Tarzana, Calif.), 100 U/mL penicillin, 100 μg/ml streptomycin (Thermo Fisher Scientific) and Normocin (Invivogen). LPS was prepared in assay medium at a concentration of 20 μg/mL. Tested compounds were dissolved in DMSO at 1 mM as a stock solution and were further diluted in the LPS solution to a final concentration of 10 μM. 100 μL of this solution was then transferred to the plated cells to obtain a final concentration of LPS at 10 μg/mL and compound at 5 μM ([…]). The culture supernatants were harvested after a 20 hour incubation period, SEAP activity in the culture supernatants was determined by a colorimetric assay using QuantiBlue (Invivogen). Plate absorbance was read at 630 nm using a Tecan Infinite M200 plate reader (Männedorf, Switzerland). The SEAP concentration was directly proportional to NF-κB activity, which was 2-point normalized to yield activity of compound 1+LPS as 200% and activity for LPS as 100%.
Measurement of NF-κB Activation Using THP1-Blue NF-κB Cells. THP1-Blue NF-κB cells were plated in 96-well plates at 10^5 cells/well in 100 μL of RPMI supplemented with 10% fetal bovine serum (FBS, Omega Scientific, Inc., Tarzana, Calif.), 100 U/mL penicillin, 100 μg/mL streptomycin (Thermo Fisher Scientific), and Normocin (Invivogen). LPS was prepared in assay medium at a concentration of 20 μg/mL. Tested compounds were dissolved in DMSO at 1 mM as a stock solution and were further diluted in the LPS solution to a final concentration of 10 μM. 100 μL of this solution was then transferred to the plated cells to obtain a final concentration of LPS at 10 μg/mL and compound at 5 μM ([…]). The culture supernatants were harvested after a 20 hours incubation period. SEAP activity in the culture supernatants was determined by a colorimetric assay using QuantiBlue (Invivogen). Plate absorbance was read at 630 nm using a Tecan Infinite M200 plate reader (Mannedorf, Switzerland). The SEAP concentration was directly proportional to NF-κB activity, which was two-point normalized to yield activity of compound 1+LPS as 200% and activity for LPS as 100%.

ISRE = experiment: Measurement of ISRE activity in ISRE-bla THP-1 cells (FRET, IFN-α as primary stimulus); conditions: compound 5 μM + IFN-α 100 U/mL, 16 hours, two point normalized: compound 1 + IFN-α = 200%, IFN-α = 100%, mean; for activity at 5 µM: Homo sapiens, THP-1, read-out: ISRE % Activation
Method: ISRE-bla THP-1 cells were plated in 96-well plates at 5×10^4 cells/well in 50 μl RPMI supplemented with 10% dialyzed FBS (Atlanta Biologicals, Inc., GA), 0.1 mM nonessential amino acids, 1 mM sodium pyruvate, 100 U/mL penicillin and 100 μg/ml streptomycin. Type I IFN-α (R&D Systems, #11200-2) solution was prepared in assay medium at a concentration of 200 U/mL Tested compounds were dissolved in DMSO at 1 mM and were further diluted in the IFN-α solution to a final concentration of 10 μM. 50 μL of this solution was then transferred to the plated cells to obtain a final concentration of IFN-α at 100 U/mL and compound at 5 μM ([…]), The cells were incubated for 16 hours, after which 20 μL of 6×LiveBLAzer™ FRET B/G Substrate (CCF4-AM) mixture (prepared according to the manufacturer's instructions) was added to each well, Plates were incubated at room temperature in the dark for 3 hours. Fluorescence was measured on a Tecan Infinite M200 plate reader at an excitation wavelength of 405 nm, and emission wavelengths of 465 nm and 535 nm. Background values (cell free wells at the same fluorescence wavelength) were subtracted from the raw fluorescence intensity values and the emission ratios were calculated as the ratio of background subtracted fluorescence intensities at 465 nm to background subtracted fluorescence intensities at 535 nm. The ISRE activity values for these compounds were 2-point normalized to yield activity of compound 1+IFN-α as 200% and activity for IFN-α as 100%.
Measurement of ISRE Activity in ISRE-bla THP-1 Cells. ISREbla THP-1 cells were plated in 96-well plates at 5×10^4 cells/well in 50 μL of RPMI supplemented with 10% dialyzed FBS (Atlanta Biologicals, Inc., GA), 0.1 mM nonessential amino acids, 1 mM sodium pyruvate, 100 U/mL penicillin, and 100 μg/mL streptomycin. Type I IFN-α (R&D Systems, no. 11200-2) solution was prepared in assay medium at a concentration of 200 U/mL. Tested compounds were dissolved in DMSO at 1 mM and were further diluted in the IFN-α solution to a final concentration of 10 μM. 50 μL of this solution was then transferred to the plated cells to obtain a final concentration of IFN-α at 100 U/mL and compound at 5 μM ([…]). The cells were incubated for 16 hours, after which 20 μL of 6×LiveBLAzer FRET B/G substrate (CCF4-AM) mixture (prepared according to the manufacturer's instructions) was added to each well. Plates were incubated at room temperature in the dark for 3 hours. Fluorescence was measured on a Tecan Infinite M200 plate reader at an excitation wavelength of 405 nm and emission wavelengths of 465 and 535 nm. Background values (cell free wells at the same fluorescence wavelength) were subtracted from the raw fluorescence intensity values and the emission ratios were calculated as the ratio of background subtracted fluorescence intensities at 465 nm to background subtracted fluorescence intensities at 535 nm. The ISRE activity values for these compounds were two-point normalized to yield activity of compound 1+IFN-α as 200% and activity for IFN-α as 100%.

THP-1 cells = experiment: Cell viability assay (MTT); conditions: compound 5 μM, 18 hours incubation; normalized to DMSO as 100%; mean
Method: THP-1 cells were plated in 96-well plates (10^5 cells/well) in 100 μL RPMI supplemented with 10% FBS, 100 U/mL penicillin and 100 μg/ml streptomycin. Compounds were dissolved in DMSO at 1 mM stock solution and were further diluted to 10 μM in the assay medium. 100 μL of this solution was added to the cells to obtain a final compound concentration of 5 μM ([…]). After 18 hours incubation, a solution of MTT in assay media (0.5 mg/mL) was added to each well and further incubated for 4 to 6 hours, followed by addition of cell lysis buffer (15% w/v SDS and 0.12% v/v 12N HCl aqueous solution), incubated overnight, and then absorbance measured at 570 nm using 650 nm as reference using Tecan Infinite M200 plate reader.
Cell Viability Assay. THP-1 cells were plated in 96-well plates (10^5 cells/well) in 100 μL RPMI supplemented with 10% FBS, 100 U/mL penicillin, and 100 μg/mL streptomycin. Compounds were dissolved in DMSO at 1 mM stock solution and were further diluted to 10 μM in the assay medium. 100 μL of this solution was added to the cells to obtain a final compound concentration of 5 μM ([…]). After 18 h incubation, a solution of MTT in assay media (0.5 mg/mL) was added to each well and further incubated for 4-6 hours, followed by addition of cell lysis buffer (15% w/v SDS and 0.12% v/v 12 N HCl aqueous solution), incubation overnight, and then absorbance was measured at 570 nm using 650 nm as reference using Tecan Infinite M200 plate reader.

| Structure (SMILES) | activity at 5 µM (NF-κB) | activity at 5 µM (ISRE) | MTT % Viability (THP-1 cells) | NF-κB % Activation (NF-κB) | ISRE % Activation (ISRE) |
| --- | --- | --- | --- | --- | --- |
| CCOc1ccc(S(=O)(=O)Nc2cc(OC)c([N+](=O)[O-])cc2OC)cc1 [Compound 9, N-(2,5-dimethoxy-4-nitrophenyl)-4-ethoxybenzenesulfonamide] | 133% | 110% | 79.2% |  |  |
| CCOc1ccc(S(=O)(=O)Nc2cc(OC)c(N)cc2OC)cc1 [Compound 10, N-(4-amino-2,5-dimethoxyphenyl)-4-ethoxybenzenesulfonamide] | 101% | 102% | 92.2% |  |  |
| CCCCOc1ccc(S(=O)(=O)Nc2cc(OC)c(Cl)cc2OC)cc1 [Compound 14, 4-Butoxy-N-(4-chloro-2,5-dimethoxyphenyl)benzenesulfonamide] | 101% | 106% | 95.3% |  |  |
| COc1cc(NS(=O)(=O)c2ccc([N+](=O)[O-])cc2)c(OC)cc1Cl [Compound 17, N-(4-chloro-2,5-dimethoxyphenyl)-4-nitrobenzenesulfonamide] | 101% | 103% | 97.4% |  |  |
| COc1cc(NS(=O)(=O)c2ccc(N)cc2)c(OC)cc1Cl [Compound 18, 4-Amino-N-(4-chloro-2,5-dimethoxyphenyl)benzenesulfonamide] | 101% | 103% | 96.0% |  |  |
| COc1cc(NS(=O)(=O)c2ccc(C#N)cc2)c(OC)cc1Cl [Compound 19, N-(4-chloro-2,5-dimethoxyphenyl)-4-cyanobenzenesulfonamide] | 97% | 106% | 102.9% |  |  |
| COc1cc(NS(=O)(=O)c2ccc(CNC(=O)OC(C)(C)C)cc2)c(OC)cc1Cl [Compound 20, tert-butyl (4-(N-(4-chloro-2,5-dimethoxyphenyl)sulfamoyl)benzyl) carbamate] |  |  | 109.2% | 100% | 101% |
| COc1cc(NS(=O)(=O)c2ccc(CN)cc2)c(OC)cc1Cl [Compound 21, 4-(aminomethyl)-N-(4-chloro-2,5-dimethoxyphenyl)benzenesulfonamide] | 103% | 111% | 97.0% |  |  |
| COC(=O)c1ccc(S(=O)(=O)Nc2cc(OC)c(Cl)cc2OC)cc1 [Compound 26, Methyl 4-(N-(4-chloro-2,5-dimethoxyphenyl)sulfamoyl)benzoate] | 191% | 202% | 74.4% |  |  |
| CCCN(c1cc(OC)c(Cl)cc1OC)S(=O)(=O)c1ccc(OCC)cc1 [Compound 34, N-(4-chloro-2,5-dimethoxyphenyl)-4-ethoxy-N-propylbenzenesulfonamide] | 227% | 199% | 71.6% |  |  |
| CCCCN(c1cc(OC)c(Cl)cc1OC)S(=O)(=O)c1ccc(OCC)cc1 [Compound 35, N-(4-chloro-2,5-dimethoxyphenyl)-4-ethoxy-N-butylbenzenesulfonamide] | 192% | 156% | 77.7% |  |  |
| CCCCCN(c1cc(OC)c(Cl)cc1OC)S(=O)(=O)c1ccc(OCC)cc1 [Compound 36, N-(4-chloro-2,5-dimethoxyphenyl)-4-ethoxy-N-pentylbenzenesulfonamide] | 135% | 105% | 72.9% |  |  |
| CCCCCCN(c1cc(OC)c(Cl)cc1OC)S(=O)(=O)c1ccc(OCC)cc1 [Compound 37, N-(4-chloro-2,5-dimethoxyphenyl)-4-ethoxy-N-hexylbenzenesulfonamide] | 81% | 99% | 95.2% |  |  |
| CCCCCCCN(c1cc(OC)c(Cl)cc1OC)S(=O)(=O)c1ccc(OCC)cc1 [Compound 38, N-(4-chloro-2,5-dimethoxyphenyl)-4-ethoxy-N-heptylbenzenesulfonamide] | 108% | 95% | 90.4% |  |  |
| CCCCCCCCCCCCN(c1cc(OC)c(Cl)cc1OC)S(=O)(=O)c1ccc(OCC)cc1 [Compound 39, N-(4-chloro-2,5-dimethoxyphenyl)-4-ethoxy-N-dodecylbenzenesulfonamide] | 97% | 100% | 93.0% |  |  |
| C#CCN(c1cc(OC)c(Cl)cc1OC)S(=O)(=O)c1ccc(OCC)cc1 [Compound 42, N-(4-chloro-2,5-dimethoxyphenyl)-4-ethoxy-N-(prop-2-yn-1-yl) benzenesulfonamide] |  |  | 72.0% | 232% | 213% |
| CCOc1ccc(S(=O)(=O)N(CCCN)c2cc(OC)c(N=[N+]=[N-])cc2OC)cc1 [Compound 63, N-(3-aminopropyl)-N-(4-azido-2,5-dimethoxyphenyl)-4-ethoxybenzenesulfonamide] |  |  | 68.9% |  |  |
